Measurements: PubChem BioAssay AID2060490 (Molecular Pharmacology Branch, DTP, NCI, 2025)

Tested on: 885512-296-R-J2-PDC complex spheroid viability
Experiment: Anticancer human tumor 885512-296-R-J2-PDC patient-derived breast carcinoma cell line growth inhibition [GQUAD]
Details: for IC50: curve of first compound; for viability, T/C: stronger effect = lower value
How it was run: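 Multi-cell-type spheroids of tumor cells with HUVEC and mesenchymal stem cells, treated with drug combinations. Concentrations descend in half-log steps from near clinical Cmax, or from 10 microM where Cmax is unknown; viability read-out.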

[1] = second compound 0.0316 µM, first compound 0.0316 µM
[2] = second compound 0.0316 µM, first compound 0.1 µM
[3] = second compound 0.0316 µM, first compound 0.316 µM
[4] = second compound 0.0316 µM, first compound 1 µM
[5] = second compound 0.0316 µM, first compound 3.16 µM
[6] = second compound 0.0316 µM, first compound 10 µM
[7] = second compound 0.1 µM, first compound 0.0316 µM
[8] = second compound 0.1 µM, first compound 0.1 µM
[9] = second compound 0.1 µM, first compound 0.316 µM
[10] = second compound 0.1 µM, first compound 1 µM
[11] = second compound 0.1 µM, first compound 3.16 µM
[12] = second compound 0.1 µM, first compound 10 µM
[13] = second compound 0.316 µM, first compound 0.0316 µM
[14] = second compound 0.316 µM, first compound 0.1 µM
[15] = second compound 0.316 µM, first compound 0.316 µM
[16] = second compound 0.316 µM, first compound 1 µM
[17] = second compound 0.316 µM, first compound 3.16 µM
[18] = second compound 0.316 µM, first compound 10 µM
[19] = second compound 1 µM, first compound 0.0316 µM
[20] = second compound 1 µM, first compound 0.1 µM
[21] = second compound 1 µM, first compound 0.316 µM
[22] = second compound 1 µM, first compound 1 µM
[23] = second compound 1 µM, first compound 3.16 µM
[24] = second compound 1 µM, first compound 10 µM
[25] = second compound 3.16 µM, first compound 0.0316 µM
[26] = second compound 3.16 µM, first compound 0.1 µM
[27] = second compound 3.16 µM, first compound 0.316 µM
[28] = second compound 3.16 µM, first compound 1 µM
[29] = second compound 3.16 µM, first compound 3.16 µM
[30] = second compound 3.16 µM, first compound 10 µM
[31] = second compound 10 µM, first compound 0.0316 µM
[32] = second compound 10 µM, first compound 0.1 µM
[33] = second compound 10 µM, first compound 0.316 µM
[34] = second compound 10 µM, first compound 1 µM
[35] = second compound 10 µM, first compound 3.16 µM
[36] = second compound 10 µM, first compound 10 µM
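Also: spheroids exposed to the compounds for one week.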
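For viability, T/C in this document: percent of tumor spheroid viability relative to DMSO vehicle control wells.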

CC1COCCN1c1cc(-c2ccnn2C)c2ccnc(-c3ccn[nH]3)c2n1 (stereo not drawn) + Cc1[nH]c2ccc(F)cc2c1-c1nc2c3cccnc3c3ncccc3c2[nH]1
IC50 (second compound 0.0316 µM): < 31.6 nM | IC50 (second compound 0.1 µM): 36 nM | IC50 (second compound 0.316 µM): < 31.6 nM | IC50 (second compound 1 µM): < 31.6 nM | IC50 (second compound 3.16 µM): < 31.6 nM | IC50 (second compound 10 µM): < 31.6 nM | viability, T/C [1]: 44.6% | viability, T/C [2]: 7.14% | viability, T/C [3]: 3.23% | viability, T/C [4]: 2.97% | viability, T/C [5]: 4.21% | viability, T/C [6]: 7.57% | viability, T/C [7]: 55.6% | viability, T/C [8]: 5.92% | viability, T/C [9]: 3.53% | viability, T/C [10]: 3.59% | viability, T/C [11]: 5.52% | viability, T/C [12]: 6.77% | viability, T/C [13]: 37.9% | viability, T/C [14]: 3.68% | viability, T/C [15]: 2.99% | viability, T/C [16]: 2.87% | viability, T/C [17]: 5.08% | viability, T/C [18]: 7.25% | viability, T/C [19]: 5.35% | viability, T/C [20]: 3.41% | viability, T/C [21]: 2.46% | viability, T/C [22]: 2.67% | viability, T/C [23]: 5.38% | viability, T/C [24]: 5.76% | viability, T/C [25]: 1.59% | viability, T/C [26]: 1.58% | viability, T/C [27]: 1.11% | viability, T/C [28]: 1.8% | viability, T/C [29]: 3.23% | viability, T/C [30]: 3.81% | viability, T/C [31]: 1.17% | viability, T/C [32]: 1.15% | viability, T/C [33]: 1.51% | viability, T/C [34]: 2.19% | viability, T/C [35]: 2.68% | viability, T/C [36]: 4.02%

CC1COCCN1c1cc(-c2ccnn2C)c2ccnc(-c3ccn[nH]3)c2n1 (stereo not drawn) + CN(C)c1ccc(Nc2c3ccc(NC(=O)CCN4CCCC4)cc3nc3cc(NC(=O)CCN4CCCC4)ccc23)cc1
IC50 (second compound 0.0316 µM): 37.2 nM | IC50 (second compound 0.1 µM): 32.2 nM | IC50 (second compound 0.316 µM): < 31.6 nM | IC50 (second compound 1 µM): < 31.6 nM | IC50 (second compound 3.16 µM): < 31.6 nM | IC50 (second compound 10 µM): < 31.6 nM | viability, T/C [1]: 57.1% | viability, T/C [2]: 6.61% | viability, T/C [3]: 3.14% | viability, T/C [4]: 3% | viability, T/C [5]: 4.69% | viability, T/C [6]: 8.34% | viability, T/C [7]: 50.8% | viability, T/C [8]: 7.66% | viability, T/C [9]: 2.82% | viability, T/C [10]: 3.38% | viability, T/C [11]: 5.04% | viability, T/C [12]: 7.27% | viability, T/C [13]: 46.7% | viability, T/C [14]: 6.13% | viability, T/C [15]: 3.67% | viability, T/C [16]: 3.77% | viability, T/C [17]: 5.39% | viability, T/C [18]: 7.84% | viability, T/C [19]: 44% | viability, T/C [20]: 7.67% | viability, T/C [21]: 3.43% | viability, T/C [22]: 3.61% | viability, T/C [23]: 4.71% | viability, T/C [24]: 8.81% | viability, T/C [25]: 27.2% | viability, T/C [26]: 6.07% | viability, T/C [27]: 3.25% | viability, T/C [28]: 3.51% | viability, T/C [29]: 5.21% | viability, T/C [30]: 7.01% | viability, T/C [31]: 12.7% | viability, T/C [32]: 7.23% | viability, T/C [33]: 4.41% | viability, T/C [34]: 3.59% | viability, T/C [35]: 4.61% | viability, T/C [36]: 2.61%

Nc1ccn(C2OC(CO)C(O)C2(F)F)c(=O)n1 (stereo not drawn) + CN(C)c1ccc(Nc2c3ccc(NC(=O)CCN4CCCC4)cc3nc3cc(NC(=O)CCN4CCCC4)ccc23)cc1
IC50 (second compound 0.0316 µM): < 31.6 nM | IC50 (second compound 0.1 µM): < 31.6 nM | IC50 (second compound 0.316 µM): < 31.6 nM | IC50 (second compound 1 µM): < 31.6 nM | IC50 (second compound 3.16 µM): < 31.6 nM | IC50 (second compound 10 µM): < 31.6 nM | viability, T/C [1]: 9.1% | viability, T/C [2]: 2.14% | viability, T/C [3]: 2.5% | viability, T/C [4]: 3.16% | viability, T/C [5]: 3.03% | viability, T/C [6]: 2.58% | viability, T/C [7]: 7.88% | viability, T/C [8]: 2.78% | viability, T/C [9]: 2.67% | viability, T/C [10]: 2.57% | viability, T/C [11]: 2.19% | viability, T/C [12]: 2.48% | viability, T/C [13]: 6.92% | viability, T/C [14]: 2.8% | viability, T/C [15]: 3.02% | viability, T/C [16]: 2.49% | viability, T/C [17]: 2.88% | viability, T/C [18]: 2.91% | viability, T/C [19]: 7.45% | viability, T/C [20]: 2.12% | viability, T/C [21]: 2.71% | viability, T/C [22]: 2.43% | viability, T/C [23]: 2.45% | viability, T/C [24]: 2.25% | viability, T/C [25]: 8.52% | viability, T/C [26]: 3.21% | viability, T/C [27]: 2.06% | viability, T/C [28]: 2.2% | viability, T/C [29]: 2.24% | viability, T/C [30]: 1.81% | viability, T/C [31]: 7.17% | viability, T/C [32]: 2.02% | viability, T/C [33]: 2.12% | viability, T/C [34]: 1.7% | viability, T/C [35]: 1.53% | viability, T/C [36]: 1.39%

O=c1[nH]cc(F)c(=O)[nH]1 + Cc1[nH]c2ccc(F)cc2c1-c1nc2c3cccnc3c3ncccc3c2[nH]1
IC50 (second compound 0.0316 µM): > 10000 nM | IC50 (second compound 0.1 µM): > 10000 nM | IC50 (second compound 0.316 µM): > 10000 nM | IC50 (second compound 1 µM): > 10000 nM | IC50 (second compound 3.16 µM): < 31.6 nM | IC50 (second compound 10 µM): < 31.6 nM | viability, T/C [1]: 98.3% | viability, T/C [2]: 98.3% | viability, T/C [3]: 104% | viability, T/C [4]: 122% | viability, T/C [5]: 69.5% | viability, T/C [6]: 59.3% | viability, T/C [7]: 102% | viability, T/C [8]: 106% | viability, T/C [9]: 111% | viability, T/C [10]: 104% | viability, T/C [11]: 70.1% | viability, T/C [12]: 56.2% | viability, T/C [13]: 96.9% | viability, T/C [14]: 90.1% | viability, T/C [15]: 81.7% | viability, T/C [16]: 104% | viability, T/C [17]: 70.5% | viability, T/C [18]: 61.1% | viability, T/C [19]: 80.4% | viability, T/C [20]: 82.3% | viability, T/C [21]: 73.7% | viability, T/C [22]: 66.4% | viability, T/C [23]: 53.9% | viability, T/C [24]: 51.6% | viability, T/C [25]: 22% | viability, T/C [26]: 18.2% | viability, T/C [27]: 14.3% | viability, T/C [28]: 16.8% | viability, T/C [29]: 11.4% | viability, T/C [30]: 9.54% | viability, T/C [31]: 1.17% | viability, T/C [32]: 2.62% | viability, T/C [33]: 1.62% | viability, T/C [34]: 1.6% | viability, T/C [35]: 1.85% | viability, T/C [36]: 1.45%
